Experimental data from patent US12209143B2, “Versatile peptide and protein macrocyclization and multimerization with diels-alder cycloadditions” (The University of Chicago, priority 2019, dated 2025).
Like-named read-outs stand apart in the source and are kept apart here. Blank lines part the entries; values can stand above or below the molecule they belong to.

Experiments:
[1] = target: T1, trypsin (Sus scrofa, UniProt P00761); experiment: In vitro trypsin resistance assay; format: in vitro ADME; settings: 10 μg/mL trypsin, 37° C.
T1 construct: purchased Thermo Pierce
Description: (§1) DAC protease stability assays. DAC peptide protease degradation kinetics were determined with Thermo Pierce™ MS-Grade Trypsin or Chymotrypsin Protease in PBS or TBS with 5 mM DTT and 2 mM CaCl2. Protease (1 eq) was added to buffer for a final assay concentration of 10 μg/mL trypsin or 0.5 μg/mL chymotrypsin. Each respective reaction mixture was then added to either 1 wt and 1a (2000 eq) or 4 wt and 4a (10,000 eq). Samples were then incubated at 37° C., 1,000 rpm. 5 min, 10 min, 30 min, 2 hr, and 4 hr time points were quenched in an equal volume of 2% TFA/H2O on ice. After 5 min, samples were centrifuged for 2 min at 17,000 rcf to precipitate quenched trypsin. Supernatant solutions were then analyzed and intact peptide quantified by LC-MS or Q-TOF.

[2] = target: T2, ERα (Homo sapiens, UniProt P03372); experiment: Competitive fluorescence polarization (FP) binding assay of DAC-SRC2 peptides
T2 construct: Wildtype and Y537S 6×His-TEV-ERα (residues 300-550) in pET21a(+) was expressed in E. coli BL21(DE3); 6×His-TEV (N, cleaved yes); made in house; host or cells: E. coli BL21(DE3)
T2 sequence (P03372 300-550): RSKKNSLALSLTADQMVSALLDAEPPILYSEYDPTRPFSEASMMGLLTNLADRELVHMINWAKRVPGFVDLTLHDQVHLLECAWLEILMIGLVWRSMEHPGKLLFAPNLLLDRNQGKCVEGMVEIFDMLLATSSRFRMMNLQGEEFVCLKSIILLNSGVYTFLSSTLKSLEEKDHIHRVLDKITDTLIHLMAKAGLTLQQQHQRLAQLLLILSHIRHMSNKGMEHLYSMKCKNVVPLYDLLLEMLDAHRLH
Description: Competitive fluorescence polarization (FP) assay. […] Plates were incubated at 4° C. for 1 hr, imaged using standard FP assay settings at 30° C., and data analyzed as previously described.

[3] = target: T3, chymotrypsin (Bos taurus, UniProt P00766); experiment: In vitro chymotrypsin resistance assay; format: in vitro ADME; settings: 0.5 μg/mL chymotrypsin, 37° C.
T3 construct: purchased Thermo Pierce
Description: as §1

T1 sequence (P00761 9-231): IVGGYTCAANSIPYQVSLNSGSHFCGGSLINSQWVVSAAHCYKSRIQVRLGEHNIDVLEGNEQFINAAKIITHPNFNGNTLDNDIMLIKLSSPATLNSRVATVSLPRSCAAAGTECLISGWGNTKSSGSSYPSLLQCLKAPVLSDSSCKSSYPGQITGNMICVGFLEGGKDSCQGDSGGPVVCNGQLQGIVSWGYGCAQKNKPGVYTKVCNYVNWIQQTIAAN

degradation by trypsin [1]: extended half-life
Molecule: CC(=O)N[C@H]1CSCC2C=CC(C)C3C(=O)N(CC(=O)NCCCC[C@@H](C(N)=O)NC(=O)[C@H](CC(=O)O)NC(=O)CNC(=O)[C@H](CCCNC(=N)N)NC1=O)C(=O)C23 (some centres unmarked) [1a, CHexRGDKMal]

Ki ([2]; calculated from competitive FP assay, ERα, value (± s.e.m.)): 210 nM
IC50 ([2]; competing a fluorescein-linked SRC2 peptide off of ERα, read-out: IC50 (approximate)): ~500 nM
IC50 ([2]; competitive FP, wildtype ERα, fluorescein-labeled SRC peptide tracer, value (± s.e.m.), read-out: IC50): 480 nM
Molecule: CC[C@H](C)[C@H](NC(=O)[C@H](CCCCN)NC(=O)[C@H](Cc1c[nH]cn1)NC(C)=O)C(=O)N[C@@H](CC(C)C)C(=O)N[C@@H](Cc1c[nH]cn1)C(=O)N[C@H]1CCCCNC(=O)CN2C(=O)C3C4C=CC(C[C@@H](C(=O)N[C@@H](CO)C(N)=O)NC(=O)[C@H](CCC(N)=O)NC(=O)[C@H](CC(C)C)NC(=O)[C@H](CC(C)C)NC1=O)(O4)C3C2=O (some centres unmarked) [7a]

degradation by chymotrypsin [3]: degraded more rapidly than 4a
Molecule: Ac-CAVPAVYK-NH2 [4 wt]
